Measurements published in patent publication US20110319431A1, “Bis Aromatic Compounds for Use as LTC4 Synthase Inhibitors” (BIOLIPOX AB, priority 2009, published 2011).
pIC50: −log10 of the molar value.

These compounds were tested against T1, Recombinant human LTC4 synthase (Homo sapiens, UniProt Q16873) (assay: In vitro LTC4 synthase assay (LTA4 to LTC4, HTRF detection)). Conditions: 5 min; total concentration of title compounds in the assay 10 μM.
T1 construct: made in house; host or cells: Pichia pastoris
T1 sequence (Q16873 1-150): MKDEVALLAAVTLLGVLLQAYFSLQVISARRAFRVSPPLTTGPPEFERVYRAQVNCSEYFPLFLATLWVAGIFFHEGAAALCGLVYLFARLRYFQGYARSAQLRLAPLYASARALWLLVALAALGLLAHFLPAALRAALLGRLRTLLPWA
Format: biochemical
Procedure: In the assay, LTC4 synthase catalyses the reaction where the substrate LTA4 is converted to LTC4. Recombinant human LTC4 synthase is expressed in Piccia pastoralis and the purified enzyme is dissolved in 25 mM tris-buffer pH 7.8 supplemented with 0.1 mM glutathione (GSH) and stored at −80° C. The assay is performed in phosphate buffered saline (PBS) pH 7.4 and 5 mM GSH in 384-well plates.
The following is added chronologically to each well:
1. 48 μL LTC4 synthase in PBS with 5 mM GSH. The total protein concentration in this solution is 0.5 μg/mL. 2. 1 μL inhibitor in DMSO (final concentration 10 μM). 3. Incubation of the plate at room temperature for 10 min. 4. 1 μL LTA4 (final concentration 2.5 μM). 5. Incubation of the plate at room temperature for 5 min. 6. 10 μL of the incubation mixture is analysed using homogenous time resolved fluorescent (HTRF) detection.

Structure (SMILES) | inhibition at 10 µM [%]
CCCCCCSc1ccc(C(=O)c2ccc(N(C)c3ccc(Cl)cc3)cc2)cc1C(=O)O [Example 2:1, 5-{4-[(4-Chlorophenyl)(methyl)amino]benzoyl}-2-(1-hexylsulfanyl)benzoic acid] | 99
CN(c1ccc(Cl)cc1)c1ccc(C(=O)c2ccc(S(=O)(=O)c3ccc(Cl)cc3)c(C(=O)O)c2)cc1 [Example 3:2, 5-{4-[(4-Chlorophenyl)(methyl)amino]benzoyl}-2-(4-chlorophenylsulfonyl)benzoic acid] | 98
CN(c1ccc(Cl)cc1)c1ccc(C(=O)c2ccc([S+]([O-])c3ccc(F)c(F)c3)c(C(=O)O)c2)nc1 (centres unmarked) [Example 1:13, 5-{5-[(4-Chlorophenyl)methylamino]pyridine-2-carbonyl}-2-(3,4-difluorophenyl-sulfinyl)benzoic acid] | 99

Now from value to compound:

inhibition at 10 µM [%] | Structure (SMILES)
98 | CN(c1ccc(Cl)cc1)c1ccc(C(=O)c2ccc(Sc3cccc(Cl)c3)c(C(=O)O)c2)cc1 [Example 2:2, 5-{4-[(4-Chlorophenyl)(methyl)amino]benzoyl}-2-(3-chlorophenylsulfanyl)-benzoic acid]
100 | CN(c1ccc(Cl)cc1)c1ccc(C(=O)c2ccc([S+]([O-])c3ccc(Cl)cc3)c(C(=O)O)c2)cc1 (centres unmarked) [Example 1:2, 5-{4-[(4-Chlorophenyl)(methyl)amino]benzoyl}-2-(4-chlorophenylsulfinyl)benzoic acid]

Same assay, conditions: Table 4, title compounds of Example 4

Structure (SMILES) | pIC50
CN(c1ccc(Cl)cc1)c1ccc(C(=O)c2cc(Sc3ccc(F)c(F)c3)cc(C(=O)O)c2)cc1 [4:9, 3-{4-[(4-Chlorophenyl)(methyl)amino]benzoyl}-5-(3,4-difluorophenyl-sulfanyl)benzoic acid] | 7.06
COc1ccc(Sc2cc(C(=O)O)cc(C(=O)c3ccc(N(C)c4ccc(Cl)cc4)cc3)c2)cc1OC [4:7, 3-{4-[(4-Chlorophenyl)(methyl)amino]benzoyl}-5-(3,4-dimethoxyphenyl-sulfanyl)benzoic acid] | 6.48
CN(c1ccc(Cl)cc1)c1ccc(C(=O)c2cc(Sc3ccccc3)cc(C(=O)O)c2)nc1 [4:4, 3-{5-[(4-Chlorophenyl)(methyl)amino]picolinoyl}-5-phenylsulfanylbenzoic acid] | 6.87

Same assay, conditions: title compounds of the Examples

Structure (SMILES) | pIC50
COc1ccc(Sc2ccc(C(=O)c3ccc(N(CC4CC4)c4ccc(Cl)cc4)cn3)cc2C(=O)O)cc1 [2:20, 5-{5-[(4-Chlorophenyl)cyclopropylmethylamino]pyridine-2-carbonyl}-2-(4-methoxyphenylsulfanyl)benzoic acid] | 7.07
O=C(c1ccc(Sc2ccc(Br)cc2)c(C(=O)O)c1)c1ccc(N(CC2CC2)c2ccc(Cl)cc2)cn1 [2:17, 2-(4-Bromophenylsulfanyl)-5-{5-[(4-chlorophenyl)cyclopropylmethyl-amino]pyridine-2-carbonyl}benzoic acid] | 6.99
O=C(c1ccc(Sc2ccc(Cl)cc2)c(C(=O)O)c1)c1ccc(N(CC2CC2)c2ccc(Cl)cc2)cn1 [2:9, 5-{5-[(4-Chlorophenyl)cyclopropylmethylamino]pyridine-2-carbonyl}-2-(4-chlorophenylsulfanyl)benzoic acid] | 7.13
COc1cccc(Sc2cc(C(=O)O)cc(C(=O)c3ccc(N(C)c4ccc(Cl)cc4)cc3)c2)c1 [2:25, 3-(4-((4-Chlorophenyl)(methyl)amino)benzoyl)-5-(3-methoxyphenylsulfanyl)benzoic acid] | 6.84
O=C(c1ccc(Sc2cccc(C(F)(F)F)c2)c(C(=O)O)c1)c1ccc(N(CC2CC2)c2ccc(Cl)cc2)cn1 [2:12, 5-{5-[(4-Chlorophenyl)cyclopropylmethylamino]pyridine-2-carbonyl}-2-(3-trifluoromethylphenylsulfanyl)benzoic acid] | 7.12
CCCCCCSc1ccc(C(=O)c2ccc(N(C)c3ccc(Cl)cc3)cc2)cc1C(=O)O [Example 2:1, 5-{4-[(4-Chlorophenyl)(methyl)amino]benzoyl}-2-(1-hexylsulfanyl)benzoic acid] | 6.76
COc1ccc(Sc2cc(C(=O)O)cc(C(=O)c3ccc(N(C)c4ccc(Cl)cc4)cc3)c2)cc1OC [2:27, 3-(4-((4-Chlorophenyl)(methyl)amino)benzoyl)-5-(3,4-dimethoxyphenylsulfanyl)benzoic acid] | 6.48
CN(c1ccc(Cl)cc1)c1ccc(C(=O)c2ccc([S+]([O-])C3CCCC3)c(C(=O)O)c2)cc1 (centres unmarked) [1:4, 5-{4-[(4-Chlorophenyl)(methyl)amino]benzoyl}-2-(cyclopentylsulfinyl)benzoic acid] | 6.79
CN(c1ccc(Cl)cc1)c1ccc(C(=O)c2cc(C(=O)O)cc([S+]([O-])c3ccc(F)c(F)c3)c2)cc1 (centres unmarked) [Example 1:19, 3-{4-[(4-Chlorophenyl)(methyl)amino]benzoyl}-5-(3,4-difluorophenylsulfinyl)-benzoic acid] | 6.67
CN(c1ccc(Cl)cc1)c1ccc(C(=O)c2ccc(S(=O)(=O)c3ccc(Cl)cc3)c(C(=O)O)c2)cc1 [Example 3:2, 5-{4-[(4-Chlorophenyl)(methyl)amino]benzoyl}-2-(4-chlorophenylsulfonyl)benzoic acid] | 6.20
CCCCCCSc1ccc(C(=O)c2ccc(N(C)c3ccc(Cl)cc3)cn2)cc1C(=O)O [2:5] | 6.89
CN(c1ccc(Cl)cc1)c1ccc(C(=O)c2ccc([S+]([O-])CC34CCC(CC3O)C4(C)C)c(C(=O)O)c2)cc1 (centres unmarked) [1:10, 5-{4-[(4-Chlorophenyl)(methyl)amino]benzoyl}-2-[(2-hydroxy-7,7-dimethyl-bicyclo[2.2.1]-1-heptyl)methylsulfinyl]benzoic acid] | 7.07
CN(c1ccc(Cl)cc1)c1ccc(C(=O)c2ccc([S+]([O-])c3ccc(F)c(F)c3)c(C(=O)O)c2)nc1 (centres unmarked) [Example 1:13, 5-{5-[(4-Chlorophenyl)methylamino]pyridine-2-carbonyl}-2-(3,4-difluorophenyl-sulfinyl)benzoic acid] | 7.06
O=C(c1ccc(Sc2ccc(F)c(F)c2)c(C(=O)O)c1)c1ccc(OCc2cccc(Cl)c2)cn1 [Example 2:21, 5-[5-(3-Chlorobenzyloxy)pyridine-2-carbonyl]-2-(3,4-difluorophenyl-sulfanyl)benzoic acid] | 6.92
CN(c1ccc(Cl)cc1)c1ccc(C(=O)c2cc(Sc3cccc(OC(F)(F)F)c3)cc(C(=O)O)c2)cc1 [2:28, 3-(4-((4-Chlorophenyl)(methyl)amino)benzoyl)-5-(3-(trifluoromethoxy)phenylsulfanyl)benzoic acid] | 6.83
CN(c1ccc(Cl)cc1)c1ccc(C(=O)c2cc(Sc3cccc(Cl)c3)cc(C(=O)O)c2)cc1 [2:26, 3-(4-((4-Chlorophenyl)(methyl)amino)benzoyl)-5-(3-chlorophenylsulfanyl)benzoic acid] | 6.78
CN(c1ccc(Cl)cc1)c1ccc(C(=O)c2cc(Sc3ccc(F)c(F)c3)cc(C(=O)O)c2)cc1 [2:29, 3-(4-((4-Chlorophenyl)(methyl)amino)benzoyl)-5-(3,4-difluorophenylsulfanyl)benzoic acid] | 7.06

Results, then the compound that gave them:

pIC50 | Structure (SMILES)
7.34 | O=C(c1ccc(Sc2cccc(Cl)c2)c(C(=O)O)c1)c1ccc(N(CC2CC2)c2ccc(Cl)cc2)cn1 [2:18, 5-{5-[(4-Chlorophenyl)cyclopropylmethylamino]pyridine-2-carbonyl}-2-(3-chlorophenylsulfanyl)benzoic acid]
7.33 | O=C(c1ccc(Sc2ccccc2)c(C(=O)O)c1)c1ccc(N(CC2CC2)c2ccc(Cl)cc2)cn1 [2:14, 5-{5-[(4-Chlorophenyl)cyclopropylmethylamino]pyridine-2-carbonyl}-2-phenylsulfanylbenzoic acid]
7.33 | CN(c1ccc(Cl)cc1)c1ccc(C(=O)c2ccc(Sc3ccc(F)c(F)c3)c(C(=O)O)c2)nc1 [2:6]
7.55 | O=C(c1ccc([S+]([O-])c2cccc(C(F)(F)F)c2)c(C(=O)O)c1)c1ccc(N(CC2CC2)c2ccc(Cl)cc2)cn1 (centres unmarked) [1:15, 5-{5-[(4-Chlorophenyl)cyclopropylmethylamino]pyridine-2-carbonyl}-2-(3-tri-fluoromethylphenylsulfinyl)benzoic acid]
7.54 | CCCCCC[S+]([O-])c1ccc(C(=O)c2ccc(N(CC3CC3)c3ccc(Cl)cc3)cc2)cc1C(=O)O (centres unmarked) [Example 1:12, 5-{4-[(4-Chlorophenyl)cyclopropylmethylamino]benzoyl}-2-(1-hexylsulfinyl)-benzoic acid]
7.51 | O=C(c1ccc([S+]([O-])c2cccc(Cl)c2)c(C(=O)O)c1)c1ccc(N(CC2CC2)c2ccc(Cl)cc2)cn1 (centres unmarked) [1:18, 2-(3-Chlorophenylsulfinyl)-5-{5-[(4-chlorophenyl)cyclopropylmethylamino]-pyridine-2-carbonyl}benzoic acid]
7.66 | O=C(c1ccc(Sc2ccccc2Cl)c(C(=O)O)c1)c1ccc(N(CC2CC2)c2ccc(Cl)cc2)cn1 [2:10, 5-{5-[(4-Chlorophenyl)cyclopropylmethylamino]pyridine-2-carbonyl}-2-(2-chlorophenylsulfanyl)benzoic acid]
7.14 | CN(c1ccc(Cl)cc1)c1ccc(C(=O)c2ccc(Sc3cccc(Cl)c3)c(C(=O)O)c2)cc1 [Example 2:2, 5-{4-[(4-Chlorophenyl)(methyl)amino]benzoyl}-2-(3-chlorophenylsulfanyl)-benzoic acid]
7.46 | CCCCCC[S+]([O-])c1ccc(C(=O)c2ccc(N(CC3CC3)c3ccc(Cl)cc3)cn2)cc1C(=O)O (centres unmarked) [1:16, 5-{5-[(4-Chlorophenyl)cyclopropylmethylamino]pyridine-2-carbonyl}-2-(1-hexyl-sulfinyl)benzoic acid]
7.59 | O=C(c1ccc(N(CC2CC2)c2ccc(Cl)cc2)cc1)c1ccc([S+]([O-])c2ccccc2)c(C(=O)O)c1 (centres unmarked) [Example 1:11, 5-{4-[(4-Chlorophenyl)(cyclopropylmethyl)amino]benzoyl}-2-phenylsulfinyl-benzoic acid]
7.18 | CN(c1ccc(Cl)cc1)c1ccc(C(=O)c2ccc([S+]([O-])c3ccc(Cl)cc3)c(C(=O)O)c2)cc1 (centres unmarked) [Example 1:2, 5-{4-[(4-Chlorophenyl)(methyl)amino]benzoyl}-2-(4-chlorophenylsulfinyl)benzoic acid]
7.39 | CCCCCC[S+]([O-])c1ccc(C(=O)c2ccc(N(C)c3ccc(Cl)cc3)cn2)cc1C(=O)O (centres unmarked) [Example 1:22, 5-{5-[(4-Chlorophenyl)methylamino]pyridine-2-carbonyl}-2-(1-hexylsulfinyl)-benzoic acid]

Same assay, conditions: value printed in the text of Example 4:1

Structure (SMILES) | pIC50
CN(c1ccc(Cl)cc1)c1ccc(C(=O)c2cc(C(=O)O)cc([S+]([O-])c3ccc(F)c(F)c3)c2)cc1 (centres unmarked) [Example 4:1, 3-{4-[(4-Chlorophenyl)(methyl)amino]benzoyl}-5-(3,4-difluorophenylsulfinyl)-benzoic acid] | 6.67
